The text below walks through data of PMC11705955, “Lack of activity of HIV-1 integrase strand-transfer inhibitors on recombinase activating gene (RAG) activity at clinically relevant concentrations” (Microbiology Spectrum, 2024).

“Also recorded” adds a separate entry of the source. Where only a bound is given, the exact number is not on record here.

Series [1] relates to murine mCherry-core RAG1 / mCherry-RAG2 V(D)J recombination in Expi293F cells. The series is described as follows: Extrachromosomal cell-based V(D)J recombination assay (GFP reporter, flow cytometry). As to conditions: for Effect on percentage of GFP-positive cells / RAG recombination: across concentrations tested, 48 h post-transfection. From the text:
To further evaluate the effect of HIV-1 integrase inhibitors on RAG activity in a cellular context, we optimized a novel extrachromosomal cell-based V(D)J recombination assay, enabling assessment of multiple compounds in a dose–response manner by flow cytometry ([33]). The schematic of FL murine RAG1 and RAG2 proteins, including the active site residues (DDE motif) in RAG1 and catalytically essential core regions of each protein, are shown in Fig. 5A. The cell-based assay used vectors that encode for the core RAG1 protein (instead of the FL version) and FL murine RAG2 expressed as C-terminal fusions to mCherry, termed mCherry-core RAG1 and mCherry-RAG2. The core regions of each RAG protein are sufficient to catalyze V(D)J recombination, whereas the non-core regions function to regulate the recombination reaction ([13]). […] The consensus RSS used in this assay contains a conserved heptamer and nonamer separated by 12 or 23 non-conserved bp (12RSS and 23RSS) (Fig. 5B). A general schematic of the design for the plasmid substrate with the 12RSS and 23RSS orientations before and after V(D)J recombination is presented in Fig. 5C. More specifically, the plasmid substrate pMAXgfp-INV was designed with a 12RSS and a 23RSS flanking each side of the Pontellina plumata green fluorescent protein gene (termed maxGFP), where the gene is in an inverted orientation relative to the CMV promoter (Fig. 5D). The RSSs are positioned in a co-linear orientation, such that successful V(D)J recombination activity will result in inversion of the maxGFP gene to place it in a transcriptionally active orientation with resulting expression of GFP. Detection of GFP-expressing cells using microscopy and flow cytometry was used as a direct readout of V(D)J recombination activity.
For the recombination assay, the pMAXgfp-INV plasmid substrate and RAG1/RAG2 expression vectors (mCherry-core RAG1 and mCherry-RAG2) were transiently transfected into Expi293 cells in the absence or presence of integrase inhibitors and were assessed via microscopy and flow cytometry. The fluorescence signal from the mCherry-tag is used to assess transfection efficiency of RAG1/RAG2 vectors (Fig. 6A). We observed that transfection of the pMAXgfp-INV substrate into Expi293 cells with RAG1/RAG2 expression vectors yielded robust GFP expression 48 h post-transfection in the cells treated with vehicle control (0.1% dimethyl sulfoxide [DMSO]) (Fig. 6A). […] NU7026 inhibits double-strand break repair, which is a necessary step after DNA cleavage by RAG enzymes, and thus serves as an indirect inhibitor of RAG activity ([35]).
To test the effect of HIV-1 integrase inhibitors on V(D)J recombination activity, we optimized an extrachromosomal cell-based V(D)J recombination assay ([33]). Briefly, Expi293 cells were plated at 1 × 10^6 cells/mL in six-well plates in Gibco Expi293 expression media the day before transfection. The next day, the Expi293 cells were co-transfected with three separate vectors, pMAXgfp-INV plasmid substrate, mCherry-core RAG1, and mCherry-RAG2 expression vectors with a 4:1 transfection reagent:DNA ratio using ExpiFectamine 293 transfection reagent (Gibco). Vehicle or candidate inhibitors were added to cell samples 2 h after transfection, with six different concentrations of each inhibitor added to separate wells. Fivefold dilutions for each inhibitor starting from 10 µM were tested.
Experiments were performed with six separate inhibitors in at least three independent experiments. Two negative control conditions for recombination activity were performed in parallel and include (i) transfections in the presence of NU7026 at 30 and 50 µM (Abcam) and (ii) using a modified pMAXgfp-INV substrate containing two 12RSSs (instead of one 12RSS and one 23RSS) that is inefficiently recombined by the RAG proteins. Vehicle control (0.1% DMSO) served as the positive control for GFP expression. The fluorescence signal from the mCherry tag was used to assess transfection efficiency. […]
(In flow cytometry, cells or beads pass a laser one at a time.)

Series [2] is described as follows: 5-day cytotoxicity assay with Cell Titer Glo readout, GALPC3. Type of series: cell-based. The following applies: human. An excerpt:
(§1) Supplemental Table S2. CC50 values for INSTIs in 5- day cytotoxicity as says with Cell Titer
(§2) Expi293F GALPC3 GALHEP HUH7 MRC5 MT4 PBMC PBMC
(§3) Kidney Prostate Hepatoma Hepatoma Lung T-cell line Primary Primary
(§4) (embryonic) cancer cell cell line cell line fibroblast cells
(In general: ATP-based viability assays read luminescence as a measure of living cells.)

A short description of series [3]: 5-day cytotoxicity assay with Cell Titer Glo readout, GALHEPG2. As to conditions: human. It counts as cell-based.
Excerpt: as §1, §2, §3, §4

Series [4] can be described thus: 5-day cytotoxicity assay with Cell Titer Glo readout, HUH7. Type of series: cell-based. As to conditions: human.
Excerpt: as §1, §2, §3, §4

The nature of series [5]: 5-day cytotoxicity assay with Cell Titer Glo readout, MT4. As to conditions: human. Type of series: cell-based.
Excerpt: as §1, §2, §3, §4

The next series relates to Expi293F cells. The series can be described thus: Cell viability (CellTiterGlo) in the cellular RAG assay. It counts as cell-based, human. The following applies: 48 hours after transfection, up to 10 µM (p8 up to 50 µM). The method, then:
After 48-h incubation at 37°C in a humidified 8% CO2 incubator, 100 µL of cell suspension was transferred to 96-well black assay plates (Corning). Each well of the assay plates then received 100 µL CellTiterGlo reagent and the resulting luminescence signal was read using the PHERAstar FSX plate reader (BMG Labtech, Germany).
Supplemental Figure S4. Cytotoxicity analysis of INSTIs in the cellular RAG assay using […]
Concentration (μM) Concentration (μM) Concentration (μM)
Expi293F cells were co-t ransfected with pMAXgfp- INV plasmid substrate, mCherry- core RAG1 , mCherry RAG2, with INSTIs added 2 hours after transfection. Six different concentrations of each […]
added to separate wells. % live cells normalized to 0.1% DMSO data are presented for INSTIs tested in cell viability (Cell- Titer Glo) assay 48 hours after transfection. BIC (n=5), CAB (n=3), concentrations tested. An ordinary one-way ANOVA with Dunnett's multiple comparisons test unmarked datapoints = not significant. […]
was used to compare % GFP levels to the DMSO control, *P ≤ 0.05, **P ≤ 0.01, ***P ≤ 0.001, (also on this page, place not known: live normalized 0.001 % live cells normalized DMSO 0.001 10 % live cells normalized DMSO 0.001 10 % live cells normalized to DMSO 0.001 10 % live cells normalized to DMSO E xpi293F cells co-transfected pMAXgfp-INV mCherry-core RAG1, 5-fold 10 to % live cells normalized to DMSO (n=3) one -way to % to DMSO)

For orientation: CC50 means the concentration giving 50% cytotoxicity. By IC50 is commonly meant the point on the concentration scale where inhibition reaches its midpoint.

For `O=C(NCc1c(F)cc(F)cc1F)c1cn2c(c(O)c1=O)C(=O)N1[C@H]3CC[C@H](C3)O[C@@H]1C2` [BIC, bictegravir], the “Effect on percentage of GFP-positive cells / RAG recombination” value in series [1] is “did not observe a reduction in percentage of GFP-positive cells; also recorded: do not show inhibitory activity”. Also, the CC50 at 5 day in series [2] was more than 44.4 µM; in series [3], 17.4 µM; in series [4], 38 µM; in series [5], 2.59 µM. For the same compound, the “Cellular toxicity, % live cells normalized to 0.1% DMSO” value in the series on Expi293F cells was “minimal effects on cellular toxicity”.
With `C[C@H]1CO[C@@H]2Cn3cc(C(=O)NCc4ccc(F)cc4F)c(=O)c(O)c3C(=O)N12` [CAB, cabotegravir], in series [1], the “Effect on percentage of GFP-positive cells / RAG recombination” value is on record as “did not observe a reduction in percentage of GFP-positive cells; also recorded: do not show inhibitory activity”. Moreover, the CC50 at 5 day in series [2] is more than 44.4 µM; in series [3], 37.9 µM; in series [4] it was 21.5 µM; in series [5], 5.25 µM. For the same compound, the “Cellular toxicity, % live cells normalized to 0.1% DMSO” value with Expi293F cells is recorded as “minimal effects on cellular toxicity”.
In the case of `C[C@@H]1CCO[C@H]2Cn3cc(C(=O)NCc4ccc(F)cc4F)c(=O)c(O)c3C(=O)N12` [DTG, dolutegravir], in series [1], the “Effect on percentage of GFP-positive cells / RAG recombination” value is “did not observe a reduction in percentage of GFP-positive cells; also recorded: do not show inhibitory activity”. Further, the CC50 at 5 day in series [2] is more than 44.4 µM; in series [3], more than 44.4 µM; in series [4], 28.7 µM; in series [5], 7.53 µM. In addition, the “Cellular toxicity, % live cells normalized to 0.1% DMSO” value in the series with Expi293F cells is listed as “minimal effects on cellular toxicity”.
`COc1cc2c(cc1Cc1cccc(Cl)c1F)c(=O)c(C(=O)O)cn2[C@H](CO)C(C)C` [EVG, elvitegravir]: in series [1], the “Effect on percentage of GFP-positive cells / RAG recombination” value is on record as “do not show inhibitory activity”. The CC50 at 5 day was 20.8 µM in series [2], 9.02 µM in series [3], 20.4 µM in series [4] and 3.75 µM in series [5]. The “Cellular toxicity, % live cells normalized to 0.1% DMSO” value in the series on Expi293F cells is reported as “minimal effects on cellular toxicity”.
As to `Cc1nnc(C(=O)NC(C)(C)c2nc(C(=O)NCc3ccc(F)cc3)c(O)c(=O)n2C)o1` [RAL, raltegravir], the “Effect on percentage of GFP-positive cells / RAG recombination” value in series [1] is on record as “did not observe a reduction in percentage of GFP-positive cells; also recorded: do not show inhibitory activity”. The CC50 at 5 day in series [2] (GALPC3, 5-day, Cell Titer Glo, read-out: CC50) is more than 44.4 µM; in series [3] (GALHEPG2, 5-day, Cell Titer Glo, read-out: CC50) it was more than 44.4 µM; in series [4] (HUH7, 5-day, Cell Titer Glo, read-out: CC50), more than 44.4 µM; in series [5] (MT4, 5-day, Cell Titer Glo, read-out: CC50), more than 50 µM. In the series on Expi293F cells, the “Cellular toxicity, % live cells normalized to 0.1% DMSO” value is on record as “minimal effects on cellular toxicity”.
As for `O=C(/C=C(\O)c1nnn[nH]1)c1c[nH]c2ccc(Cl)cc12` [p8, 5-CITEP], the IC50 in series [1] (Mus musculus, Expi293F, compound added 2 h after transfection, read 48 h post-transfection, serum-free media, read-out: IC50 in cellular V(D)J recombination assay (% GFP-positive cells)) is more than 50 µM. In addition, the 50% cytotoxic concentration (CC50) at 5 day in series [2] was more than 44.4 µM; in series [3], more than 44.4 µM; in series [4] it was more than 44.4 µM; in series [5], more than 50 µM. Moreover, in the series with Expi293F cells, the “Cellular toxicity, % live cells normalized to 0.1% DMSO” value is reported as “minimal effects on cellular toxicity”.
